In PubChem BioAssay AID179 (DTP/NCI, 2004):
Activity calls are given as the source filed them.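 How the source made its calls: active means compounds giving half or more protection of infected cells from virus-caused growth loss, again on retest; inactive means the rest.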

System: CEM cells HIV-1 protection, formazan growth assay
Test: NCI AIDS Antiviral Assay
Details: for IC50: measured here: growth of uninfected CEM cells
How it was run: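 Category rules: moderately active means at least 50% protection on retest, and confirmed active means 100% protection reproducibly. The underlying data came from a formazan growth assay in HIV-1-infected CEM cells.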

SMILES | EC50 [µM] | IC50 [µM] | outcome
O=C(O)/C=C/C(=O)NNC(=O)/C=C/C(=O)O | > 1100 | 692 | –
O/N=C1/CCCCCC1NO (stereo not drawn) | > 200 | > 200 | –
O=C(O)CN1CCN2CCOCCOCCN(CC1)CCN(CC(=O)O)CC2 | > 200 | 34.7 | –
CNC(=O)C(C)C1C(=O)/C(=C(O)/C=C\C(C)=C\C(C)C2OC3(C)OC(C=CC34CO4)C2C)C(=O)N1C1CCC(O)C(C)O1 (stereo not drawn) | > 31.6 | > 31.6 | –
c1ccc([P+](Cc2ccc(C[P+](c3ccccc3)(c3ccccc3)c3ccccc3)s2)(c2ccccc2)c2ccccc2)cc1 | 16.2 | 34.7 | –
CC(=O)c1ccc2c(c1)N(CCCN1CCN(CCO)CC1)c1ccccc1S2 | > 200 | 10.2 | –
CCCCc1c2c(nc3c1CCc1cc4cc5c(nc4nc1-3)-c1nc3c(c(CCCC)c1CC5)CCCC3)CCCC2 | > 0.977 | > 0.977 | –
O=C1C(Cl)=C(Cl)C(=O)N1c1ccc(F)cc1 | – | – | inactive
Cc1ccc(NC(=O)c2cc3c(cc2Cl)Sc2nccn2S3(=O)=O)cc1 | > 200 | 61.7 | –
COC(=O)CCC(C)C1CCC2[C@@H]3CC[C@@H]4CC(CSC(C)=O)CC[C@]4(C)C3CC[C@]12C (stereo partly drawn) | > 29.5 | > 29.5 | –
O=Nc1ccc2ccccc2c1N=Nc1ccccc1C(=O)O | > 200 | 182 | –
COC(=O)C1=C(\O)C[C@@]2(C)CC[C@@H](C(=O)OC)C2C/C=C\1C(=O)OC (stereo partly drawn) | – | – | inactive
CCN1c2nc3ccccc3nc2N(CC)c2nc3ccccc3nc21 | > 200 | 41.7 | –
CCSc1nc2n(c(=S)n1)CCN2C | > 708 | 138 | –
COc1cccc(C2c3cc4c(cc3OC(NNS(=O)(=O)c3ccc(C)cc3)C2C)OCO4)c1OC (stereo not drawn) | > 200 | 1.86 | –
c1ccc(CC2(c3cc4ccccc4[nH]3)OCCO2)nc1 | > 200 | 174 | –
O=C1C2=C(c3ccccc31)C(c1ccccc1Cl)NC(=S)N2 (stereo not drawn) | > 79.4 | 33.1 | –
O=C1C=CC2(C=C1)CCC(=O)O2 | 2.95 | 158 | –
CC(=O)Nc1cccc(C[P+](c2ccccc2)(c2ccccc2)c2ccccc2)c1 | > 200 | 91.2 | –
C=C1C(C)C2C(Cc3ccccc3)NC(=O)C23C(OC(C)=O)/C=C/C(C)(O)CC(C)C/C=C/C3C1O (stereo not drawn) | > 2 | 0.0977 | –
CC(C)C1CC(CO)(CNc2nc(N)nc(Cl)c2/C=N\O)C1 (stereo not drawn) | > 20 | 0.0331 | –
O=C1c2ccccc2C=c2c1nc1c(O)ccc3cccc2c31 | > 100 | 15.5 | –

SMILES | EC50 [µM] | IC50 [µM] | outcome
O=S(=O)(Nc1nnc2ccc3ccccc3n12)c1ccc(Cl)cc1S | > 200 | 105 | –
Cc1ccc(Nc2[nH]c(=O)[nH]c(=O)c2N=O)cc1 | > 200 | > 200 | –
CC(=O)CCCC(CC(C)O)[Si](C)(C)C (stereo not drawn) | > 1070 | 562 | –
CC1(C)C2CCC(C2)C1/C=C1/SC(=S)NC1=O (stereo not drawn) | > 200 | 10 | –
CCOC(=O)c1sc2nc(SC)nc3c2c1NCN3C | > 200 | > 200 | –
CCOc1ccccc1NC(=O)C(=O)CC(=O)c1c(C)n([O-])c2ccccc2[n+]1=O | > 110 | > 110 | –
Cc1cccc(NC(=O)CC(=O)N2N=C(N(CCC#N)c3ccc(Cl)cc3)CC2c2ccccc2)c1 (stereo not drawn) | > 100 | > 100 | –
CC(=O)OC1COC(Nc2nc(N)n(C)c(=O)c2N=O)C(OC(C)=O)C1OC(C)=O (stereo not drawn) | > 200 | > 200 | –
c1ccc(CN2COc3c(ccc4c5c(ccc34)CN(Cc3ccccc3)CO5)C2)cc1 | > 2.45 | > 2.45 | –
O=C(O)CCCCCCCc1cccc(OCCO)c1 | > 200 | > 200 | –
COC(=O)[C@]1(C)CCC[C@]2(C)c3cc(C(C)=O)c(C(C)C)cc3CC[C@@H]12 | > 200 | 25.7 | –
N#C/C(=C\NC(=S)NCc1ccccc1)c1nc2ccccc2s1 | > 200 | 47.9 | –
CC(C)(C)C(=O)Oc1ccc(/C=C/C(=O)c2ccc(OC(=O)C(C)(C)C)cc2)cc1 | > 200 | 38 | –
Cc1[nH]c(=O)nc(N/N=C/c2ccc(Cl)cc2)c1C(=O)Nc1ccc(Cl)cc1 | – | – | inactive
CCOC(=O)/N=c1/nc2ccn(C)c2c(NC(=O)OCC)s1 | > 209 | > 209 | –
c1ccc(-c2nnc3oc(-c4cccs4)nn23)cc1 | > 100 | > 100 | –
CCOC(=O)C12OC(OCC)(CC1(OCC)OCC)C1(CC1)C2=O (stereo not drawn) | > 200 | > 200 | –
CCOC(=O)C(CC(C)C)NC(=O)c1cc(SC#N)c(C)c2c1Nc1c(c(C)c3oc(=O)c(C)nc3c1C(=O)NC(CC(C)C)C(=O)OCC)O2 (stereo not drawn) | > 5.01 | > 5.01 | –
Cc1cc2c(C)nn(Cc3ccccc3Cl)c2c(C#N)c1C | > 23.4 | > 23.4 | –
CNc1nc(SC)n(C)c(=O)c1N=O | – | – | inactive
C/C(=N\NC(=O)/C(C#N)=C\c1ccc(N(CCC#N)CCC#N)cc1)c1ccccc1 | – | – | inactive
NC(=S)NCC12CC3CC(CC(C3)C1)C2 | – | – | inactive

SMILES | EC50 [µM] | IC50 [µM] | outcome
CCOC(=O)/C(=C/c1ccc([N+](=O)[O-])cc1)N(CC)CC | > 324 | > 324 | –
CCOC(=O)c1c(C)[nH]c(=S)c(C#N)c1-c1ccc(OC)cc1 | > 200 | 81.3 | –
CCOC(=O)c1sc(SSc2sc(C(=O)OCC)c(C)c2[N+](=O)[O-])c([N+](=O)[O-])c1C | > 200 | 138 | –
O=c1nc(Nc2cccc(Cl)c2)oc2cc(Cl)oc(=O)c12 | > 79.4 | 11.5 | –
COc1cc(/C=N\NC(=O)C[N+](C)(C)C)cc(OC)c1OC | > 200 | > 200 | –
COC(=O)/C=C/c1c(CC=C(C)C)ncn1C | > 537 | 3.47 | –
Cn1c(N)c2c3c(sc2nc1=O)CCCC3 | 77.6 | > 100 | –
N#C/C(=C/N1C(=O)CC(=O)NC1=S)C(N)=O | > 200 | > 200 | –
CC(c1cccc2ccccc12)/[N+]([O-])=C/c1ccccc1 (stereo not drawn) | > 182 | 162 | –
CCOC(=O)COc1c(C)cc(SSc2cc(C)c(OCC(=O)OCC)c(C)c2)cc1C | > 200 | 12 | –
c1ccc(CN2CCC3(CC2)SSC2(CCN(Cc4ccccc4)CC2)S3)cc1 | > 100 | 87.1 | –
CC(=O)OCc1ccc(-c2nc(C#N)c(N)o2)o1 | > 200 | > 200 | –
N#CCCC1(CCC#N)CCCCCCCCC(CCC#N)(CCC#N)C(O)C1O (stereo not drawn) | > 200 | > 200 | –
Cn1cc(C2(C)CC(C)(C)c3c2n(C)c2ccccc32)c2ccccc21 (stereo not drawn) | > 55 | 47.9 | –
O=S1(=O)C[C@H](NCc2ccccc2)[C@H](NCc2ccccc2)C1 | > 200 | 107 | –
CC(=O)OC1CC2C(=O)C(=O)C1(C)C2(C)C (stereo not drawn) | > 200 | > 200 | –
COc1c(C)cc(C(=O)c2cc(C)c(OC)c(Br)c2)cc1Br | > 100 | 95.5 | –
Cc1ccc2c(c1)nc1c3ccccc3[nH]n21 | > 5.89 | > 5.89 | –
CCOc1ccc(NC(=S)/N=C/C(C(=O)Nc2ccccc2C)=C(\C)O)cc1 | > 200 | > 200 | –
O=C1CC(c2c[nH]c3ccccc23)C(=O)N1 (stereo not drawn) | – | – | inactive
CCOC(=O)NC1C2CC(=O)C(O2)C1OCc1ccccc1 (stereo not drawn) | > 309 | 295 | –
